pIC50: −log10 of the molar value.
What follows are molecules tested against T1, IL-17A/A (Homo sapiens, UniProt Q16552) (assay: IL-17A/A HEK-Blue cell assay). Settings: HEK-Blue IL-17A reporter cell line (HEK 293), IL-17A/A stimulation, 20 hours incubation, SEAP read at A630.
T1 construct: purchased Genscript Z03228
T1 sequence (Q16552 24-155): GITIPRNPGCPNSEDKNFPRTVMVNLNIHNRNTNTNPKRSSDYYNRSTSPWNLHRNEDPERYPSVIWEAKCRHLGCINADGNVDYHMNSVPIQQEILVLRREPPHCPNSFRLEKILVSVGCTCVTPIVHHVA
Assay type: cell-based
In short: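 IC50 came from a 4-parameter fit of SEAP read at A630 (Quanti-Blue). Compound was titrated to a top final concentration of 10, 1 or 0.3 uM with 0.1% final DMSO and added just before IL-17A/A. Incubation lasted 20 hours in HEK293 cells engineered with IL-17RA, IL-17RC, Act1 and an NFκB-SEAP reporter.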

SMILES	pIC50
CC[C@@H](c1ccc(F)cc1)[C@H](NC(=O)c1ccnn1CC)c1cn2nc(CC3C[C@@H](C(F)(F)F)CNC3=O)ccc2n1 (stereo partly drawn) [Compound 168, 1-ethyl-N-((1S,2S)-2-(4-fluorophenyl)-1-(6-(((3R.5R)-2-oxo-5-(trifluoromethyl)piperidin-3-yl)methyl)imidazo[1,2-b]pyridazin-2-yl)butyl)-1H-pyrazole-5-carboxamide]	> 7.00
CCn1nccc1C(=O)N[C@@H](c1cn2nc(CC3C[C@@H](C(F)(F)F)CNC3=O)ccc2n1)[C@@H]1C[C@H]2C[C@H]2C1 (stereo partly drawn) [Compound 171, N-((1R)-((1R,3S,5S)-bicyclo[3.1.0]hexan-3-yl)(6-(((5R)-2-oxo-5-(trifluoromethyl)piperidin-3-yl)methyl)imidazo[1,2-b]pyridazin-2-yl)methyl)-1-ethyl-1H-pyrazole-5-carboxamide]	6.00 to 7.00
CCn1nccc1C(=O)N[C@H](c1cn2nc(CC3C[C@@H](C(F)(F)F)CNC3=O)ccc2n1)C1CC(C2CC2)(C2CC2)C1 (stereo partly drawn) [Compound 172, N-((1S)-(3,3-dicyclopropylcyclobutyl)(6-(((5R)-2-oxo-5-(trifluoromethyl)piperidin-3-yl)methyl)imidazo[1,2-b]pyridazin-2-yl)methyl)-1-ethyl-1H-pyrazole-5-carboxamide]	< 6.00
CCn1nccc1C(=O)N[C@H](c1cn2nc(CC3C[C@H](C(F)(F)F)CNC3=O)ccc2n1)C1CCCCCC1 (stereo partly drawn) [Compound 177, N—((S)-cycloheptyl(6-(((5S)-2-oxo-5-(trifluoromethyl)piperidin-3-yl)methyl)imidazo[1,2-b]pyridazin-2-yl)methyl)-1-ethyl-1H-pyrazole-5-carboxamide]	> 7.00
CCn1nccc1C(=O)N[C@H](c1cn2nc(CC3C[C@@H](C(F)(F)F)CNC3=O)ccc2n1)[C@H]1C[C@@H](C2CC2)C1 (stereo partly drawn) [Compound 179, N-((1S)-((1S,3R)-3-cyclopropylcyclobutyl)(6-(((5R)-2-oxo-5-(trifluoromethyl)piperidin-3-yl)methyl)imidazo[1,2-b]pyridazin-2-yl)methyl)-1-ethyl-1H-pyrazole-5-carboxamide]	< 6.00
CCn1nccc1C(=O)N[C@H](c1cn2nc(CC3C[C@@H](C(F)(F)F)CNC3=O)c(C(C)C)cc2n1)C1CCC(F)(F)CC1 (stereo partly drawn) [Compound 180, N-((1S)-(4,4-difluorocyclohexyl)(7-isopropyl-6-(((5R)-2-oxo-5-(trifluoromethyl)piperidin-3-yl)methyl)imidazo[1,2-b]pyridazin-2-yl)methyl)-1-ethyl-1H-pyrazole-5-carboxamide]	> 7.00
CCn1nccc1C(=O)N[C@H](c1cn2nc(CC3C[C@@H](C(F)(F)F)CNC3=O)c(S(C)(=O)=O)cc2n1)C1CCC(F)(F)CC1 (stereo partly drawn) [Compound 184, N-((1S)-(4,4-difluorocyclohexyl)(7-(methylsulfonyl)-6-(((5R)-2-oxo-5-(trifluoromethyl)piperidin-3-yl)methyl)imidazo[1,2-b]pyridazin-2-yl)methyl)-1-ethyl-1H-pyrazole-5-carboxamide]	6.00 to 7.00
CCn1nccc1C(=O)N[C@H](c1cn2nc(CC3C[C@@H](C(F)(F)F)CNC3=O)c(OC(C)C)cc2n1)C1CCC(F)(F)CC1 (stereo partly drawn) [Compound 185, N-((1S)-(4,4-difluorocyclohexyl)(7-isopropoxy-6-(((5R)-2-oxo-5-(trifluoromethyl)piperidin-3-yl)methyl)imidazo[1,2-b]pyridazin-2-yl)methyl)-1-ethyl-1H-pyrazole-5-carboxamide]	> 7.00
CCn1nccc1C(=O)N[C@H](c1cn2nc(CC3C[C@@H](C(F)(F)F)CNC3=O)c(C(=O)O)cc2n1)C1CCC(F)(F)CC1 (stereo partly drawn) [Compound 187, 2-((S)-(4,4-difluorocyclohexyl)(1-ethyl-1H-pyrazole-5-carboxamido)methyl)-6-(((5R)-2-oxo-5-(trifluoromethyl)piperidin-3-yl)methyl)imidazo[1,2-b]pyridazine-7-carboxylic acid]	6.00 to 7.00

More lines, now with the values ahead:

pIC50	SMILES
< 6.00	CCn1ncnc1C(=O)N[C@H](c1cn2nc(CC3C[C@@H](C(F)(F)F)CNC3=O)ccc2n1)[C@H]1CC[C@H](C)CC1 (stereo partly drawn) [Compound 166, N-((1S)-((1R.4S)-4-methylcyclohexyl)(6-(((5R)-2-oxo-5-(trifluoromethyl)piperidin-3-yl)methyl)imidazo[1,2-b]pyridazin-2-yl)methyl)-1-ethyl-1H-1,2,4-triazole-5-carboxamide]
6.00 to 7.00	C[C@H]1CC[C@H]([C@H](NC(=O)c2ccnn2CCO)c2cn3nc(CC4C[C@@H](C(F)(F)F)CNC4=O)ccc3n2)CC1 (stereo partly drawn) [Compound 167, 1-(2-hydroxyethyl)-N—((S)-((1R.4S)-4-methylcyclohexyl)(6-(((3R.5R)-2-oxo-5-(trifluoromethyl)piperidin-3-yl)methyl)imidazo[1,2-b]pyridazin-2-yl)methyl)-1H-pyrazole-5-carboxamide]
6.00 to 7.00	CCn1nccc1C(=O)N[C@H](c1cn2nc(CC3C[C@@H](C(F)(F)F)CNC3=O)ccc2n1)C1CCCCCC1 (stereo partly drawn) [Compound 169, N—((S)-cycloheptyl(6-(((3R.5R)-2-oxo-5-(trifluoromethyl)piperidin-3-yl)methyl)imidazo[1,2-b]pyridazin-2-yl)methyl)-1-ethyl-1H-pyrazole-5-carboxamide]
< 6.00	CCn1nccc1C(=O)N[C@H](c1cn2nc(CC3C[C@@H](C(F)(F)F)CNC3=O)ccc2n1)[C@@H]1C[C@H]2C[C@H]2C1 (stereo partly drawn) [Compound 170, N-((1S)-((1R,3S,5S)-bicyclo[3.1.0]hexan-3-yl)(6-(((5R)-2-oxo-5-(trifluoromethyl)piperidin-3-yl)methyl)imidazo[1,2-b]pyridazin-2-yl)methyl)-1-ethyl-1H-pyrazole-5-carboxamide]
< 6.00	CCn1nccc1C(=O)N[C@H](c1cn2nc(CC3C[C@@H](C(F)(F)F)CNC3=O)ccc2n1)C12CC(C)(C1)C2 (stereo partly drawn) [Compound 178, 1-ethyl-N-((1S)-(3-methylbicyclo[1.1.1]pentan-1-yl)(6-(((5R)-2-oxo-5-(trifluoromethyl)piperidin-3-yl)methyl)imidazo[1,2-b]pyridazin-2-yl)methyl)-1H-pyrazole-5-carboxamide]
> 7.00	CCn1nccc1C(=O)N[C@H](c1cn2nc(CC3C[C@@H](C(F)(F)F)CNC3=O)c(C(C)OC)cc2n1)C1CCC(F)(F)CC1 (stereo partly drawn) [Compound 183, N-((1S)-(4,4-difluorocyclohexyl)(7-(1-methoxyethyl)-6-(((5R)-2-oxo-5-(trifluoromethyl)piperidin-3-yl)methyl)imidazo[1,2-b]pyridazin-2-yl)methyl)-1-ethyl-1H-pyrazole-5-carboxamide]
> 7.00	CCn1nccc1C(=O)N[C@H](c1cn2nc(CC3C[C@@H](C(F)(F)F)CNC3=O)c(C(C)(C)O)cc2n1)C1CCC(F)(F)CC1 (stereo partly drawn) [Compound 186, N-((1S)-(4,4-difluorocyclohexyl)(7-(2-hydroxypropan-2-yl)-6-(((5R)-2-oxo-5-(trifluoromethyl)piperidin-3-yl)methyl)imidazo[1,2-b]pyridazin-2-yl)methyl)-1-ethyl-1H-pyrazole-5-carboxamide]
6.00 to 7.00	CCn1nccc1C(=O)N[C@H](c1cn2nc(CC3C[C@@H](C(F)(F)F)CNC3=O)ccc2n1)C1CCCCC1 (stereo partly drawn) [Compound 191, N-((1S)-cyclohexyl(6-(((5R)-2-oxo-5-(trifluoromethyl)piperidin-3-yl)methyl)imidazo[1,2-b]pyridazin-2-yl)methyl)-1-ethyl-1H-pyrazole-5-carboxamide]

Reference: patent US20250346602A1, “LACTAM SUBSTITUTED IMIDAZOPYRIDAZINE IL-17A MODULATORS AND USES THEREOF” (DICE ALPHA, INC., priority 2022, published 2025)
